Experimental data as given in US10722514B2 (FLX Bio, Inc., priority 2017, dated 2020).

Target: T1, recombinant full-length USP7 (Homo sapiens, UniProt Q93009)
T1 construct: A 25 μl reaction volume containing recombinant full-length USP7 (62 pM)
Assay: USP7-mediated ubiquitin-rhodamine cleavage assay
Assay type: biochemical
Details: recombinant full-length USP7 62 pM; ubiquitin-rhodamine 100 nM; 30-minute incubation with compound, 1 hour reaction at room temperature; read-out: Potency: USP7 IC50
Procedure: In the case of the USP7 deubiquitylating enzyme, the IC50 of an USP7 inhibiting compound is the concentration of the compound that inhibits 50% of the activity observed in a USP7-mediated ubiquitin-rhodamine cleavage assay.
For the USP7 inhibitors disclosed herein, their potency was measured using the following test method.
A 25 μl reaction volume containing recombinant full-length USP7 (62 pM) in 20 mM HEPES pH 7.3, 150 mM NaCl, 1 mM TCEP, and 125 μg/ml BSA was assembled in wells of 384 well plates. Test compounds were dispensed with a Hewlett Packard D300 digital dispenser (1% final DMSO). Following a 30-minute incubation at room temperature, ubiquitin-rhodamine was added with the D300 to a final concentration of 100 nM and the reaction was allowed to proceed for 1 hour at room temperature protected from light. The reaction was stopped by the addition of 5 μl 1M acetic acid. Rhodamine fluorescence was measured using an Envision plate reader (Perkin Elmer) and IC50 values were determined by non-linear regression using a 4-parameter fit in a Dotmatics (Bishops Stortford, Hertfordshire, England) software package.

T1 sequence (Q93009 whole entry): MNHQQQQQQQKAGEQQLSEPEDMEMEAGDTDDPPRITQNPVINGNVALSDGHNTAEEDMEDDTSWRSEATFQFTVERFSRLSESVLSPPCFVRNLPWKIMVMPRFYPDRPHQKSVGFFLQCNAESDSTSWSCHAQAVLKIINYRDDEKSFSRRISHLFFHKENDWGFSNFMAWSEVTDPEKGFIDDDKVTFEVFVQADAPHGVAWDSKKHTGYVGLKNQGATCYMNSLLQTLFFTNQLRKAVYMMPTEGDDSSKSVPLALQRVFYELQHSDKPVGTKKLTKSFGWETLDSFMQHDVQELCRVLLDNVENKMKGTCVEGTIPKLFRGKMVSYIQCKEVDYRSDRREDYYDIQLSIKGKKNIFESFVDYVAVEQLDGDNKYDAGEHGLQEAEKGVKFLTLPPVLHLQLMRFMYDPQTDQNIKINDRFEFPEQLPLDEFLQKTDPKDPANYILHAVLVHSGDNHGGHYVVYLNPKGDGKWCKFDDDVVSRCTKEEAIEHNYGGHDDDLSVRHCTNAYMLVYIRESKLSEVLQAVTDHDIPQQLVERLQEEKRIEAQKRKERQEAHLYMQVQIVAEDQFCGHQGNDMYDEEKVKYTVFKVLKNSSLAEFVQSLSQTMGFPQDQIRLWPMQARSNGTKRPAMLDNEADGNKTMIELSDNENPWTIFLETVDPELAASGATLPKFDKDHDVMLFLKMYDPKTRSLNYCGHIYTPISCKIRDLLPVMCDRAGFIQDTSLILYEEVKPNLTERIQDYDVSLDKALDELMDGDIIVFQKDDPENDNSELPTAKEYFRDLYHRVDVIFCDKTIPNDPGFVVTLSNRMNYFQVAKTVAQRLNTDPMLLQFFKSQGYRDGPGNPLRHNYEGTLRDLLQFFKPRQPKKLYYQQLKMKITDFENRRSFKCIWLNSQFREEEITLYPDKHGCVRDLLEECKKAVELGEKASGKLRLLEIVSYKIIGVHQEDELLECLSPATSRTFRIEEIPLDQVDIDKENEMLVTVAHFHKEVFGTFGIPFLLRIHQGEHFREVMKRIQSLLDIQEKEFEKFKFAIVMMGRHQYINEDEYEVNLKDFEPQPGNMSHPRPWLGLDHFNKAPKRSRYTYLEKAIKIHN

SMILES	IC50
Cc1cc(Cl)cc(-c2ccnc3cc(CO)sc23)c1O[C@@H]1CN[C@H](C)C1 [Example 62, (7-(5-Chloro-3-methyl-2-(((3S,5R)-5-methylpyrrolidin-3-yl)oxy)phenyl)thieno[3,2-b]pyridin-2-yl)methanol]	10 to 30 µM
Cc1cc(C(F)(F)F)cc(-c2ccnc3cc(CN4C(=O)CCC4=O)sc23)c1O[C@@H]1CNC[C@@H]1F [Example 63, 1-((7-(2-(((3R,4S)-4-Fluoropyrrolidin-3-yl)oxy)-3-methyl-5-(trifluoromethyl)phenyl)thieno[3,2-b]pyridin-2-yl)methyl)pyrrolidine-2,5-dione]	< 1 µM
Cc1cc(Cl)cc(-c2ccnc3cc(CN4C(=O)CCC4=O)sc23)c1O[C@@H]1CNC(C(=O)N(C)C)C1 (stereo partly drawn) [Example 64, (4S)-4-(4-Chloro-2-(2-((2,5-dioxopyrrolidin-1-yl)methyl)thieno[3,2-b]pyridin-7-yl)-6-methylphenoxy)-N,N-dimethylpyrrolidine-2-carboxamide]	1 to 10 µM
Cc1cc(Cl)cc(-c2ccnc3c(F)c(CN4C(=O)CCC4=O)sc23)c1O[C@@H]1CNC[C@@H]1F [Example 65, 1-((7-(5-Chloro-2-(((3R,4S)-4-fluoropyrrolidin-3-yl)oxy)-3-methylphenyl)-3-fluorothieno[3,2-b]pyridin-2-yl)methyl)pyrrolidine-2,5-dione]	< 1 µM
CO[C@@H]1CNC[C@@H]1Oc1c(C)cc(Cl)cc1-c1ccnc2cc(CO)sc12 [Example 66, (7-(5-Chloro-2-(((3S,4R)-4-methoxypyrrolidin-3-yl)oxy)-3-methylphenyl)thieno[3,2-b]pyridin-2-yl)methanol]	10 to 30 µM
Cc1cc(Cl)cc(-c2ccnc3cc(CO)sc23)c1O[C@H]1CNC[C@H]1F [Example 67, (7-(5-Chloro-2-(((3S,4R)-4-fluoropyrrolidin-3-yl)oxy)-3-methylphenyl)thieno[3,2-b]pyridin-2-yl)methanol]	10 to 30 µM
Cc1cc(Cl)cc(-c2ccnc3cc(CO)sc23)c1O[C@@H]1CNC[C@@H]1C(C)C [Example 68, (7-(5-Chloro-2-(((3S,4S)-4-isopropylpyrrolidin-3-yl)oxy)-3-methylphenyl)thieno[3,2-b]pyridin-2-yl)methanol]	> 30 µM
Cc1cc(Cl)cc(-c2ccnc3cc(CO)sc23)c1OCC12CNCC1C2 (stereo not shown) [Example 69, (7-(2-((3-Azabicyclo[3.1.0]hexan-1-yl)methoxy)-5-chloro-3-methylphenyl)thieno[3,2-b]pyridin-2-yl)methanol]	10 to 30 µM
Cc1cc(Cl)cc(-c2ccnc3cc(CO)sc23)c1OCC1CCNC1 (stereo not shown) [Example 70, (7-(5-Chloro-3-methyl-2-(pyrrolidin-3-ylmethoxy)phenyl)thieno[3,2-b]pyridin-2-yl)methanol]	10 to 30 µM
Cc1cc(Cl)cc(-c2ccnc3cc(CO)sc23)c1O[C@@H]1CN[C@@H](C(C)(C)O)C1 [Example 71, 2-((2R,4S)-4-(4-Chloro-2-(2-(hydroxymethyl)thieno[3,2-b]pyridin-7-yl)-6-methylphenoxy)pyrrolidin-2-yl)propan-2-ol]	10 to 30 µM
Cc1cc(Cl)cc(-c2ccnc3cc(CO)sc23)c1O[C@@H]1CN[C@H](C(C)(C)O)C1 [Example 72, 2-((2S,4S)-4-(4-Chloro-2-(2-(hydroxymethyl)thieno[3,2-b]pyridin-7-yl)-6-methylphenoxy)pyrrolidin-2-yl)propan-2-ol]	1 to 10 µM
CCO[C@H]1CNC[C@H]1Oc1c(C)cc(Cl)cc1-c1ccnc2cc(CO)sc12 [Example 73, (7-(5-Chloro-2-(((3R,4S)-4-ethoxypyrrolidin-3-yl)oxy)-3-methylphenyl)thieno[3,2-b]pyridin-2-yl)methanol]	10 to 30 µM
Cc1cc(Cl)cc(-c2ccnc3cc(CO)sc23)c1O[C@@H]1CCC[C@@H]1N [Example 74, (7-(2-(((1R,2S)-2-Aminocyclopentyl)oxy)-5-chloro-3-methylphenyl)thieno[3,2-b]pyridin-2-yl)methanol]	10 to 30 µM
Cc1cc(Cl)cc(-c2ccnc3cc(CO)sc23)c1O[C@@H]1CCC[C@H]1N [Example 75, (7-(2-(((1R,2R)-2-Aminocyclopentyl)oxy)-5-chloro-3-methylphenyl)thieno[3,2-b]pyridin-2-yl)methanol]	10 to 30 µM
Cc1cc(Cl)cc(-c2ccnc3cc(CO)sc23)c1O[C@@H]1CN[C@@H](CO)C1 [Example 76, (7-(5-Chloro-2-(((3S,5R)-5-(hydroxymethyl)pyrrolidin-3-yl)oxy)-3-methylphenyl)thieno[3,2-b]pyridin-2-yl)methanol]	10 to 30 µM
Cc1cc(Cl)cc(-c2ccnc3cc(CO)sc23)c1O[C@@H]1CN[C@H](CO)C1 [Example 77, (7-(5-Chloro-2-(((3S,5S)-5-(hydroxymethyl)pyrrolidin-3-yl)oxy)-3-methylphenyl)thieno[3,2-b]pyridin-2-yl)methanol]	10 to 30 µM

SMILES	IC50
Cc1cc(Cl)cc(-c2ccnc3cc(CO)sc23)c1O[C@@H]1CNC[C@@H]1O [Example 78, (3S,4R)-4-(4-Chloro-2-(2-(hydroxymethyl)thieno[3,2-b]pyridin-7-yl)-6-methylphenoxy)pyrrolidin-3-ol]	1 to 10 µM
Cc1cc(Cl)cc(-c2ccnc3ccsc23)c1OC1CCNC1=O (stereo not shown) [Example 79, 3-(4-chloro-2-methyl-6-(thieno[3,2-b]pyridin-7-yl)phenoxy)pyrrolidin-2-one]	> 30 µM
Cc1cc(Cl)cc(-c2ccnc3cc(CO)sc23)c1O[C@@H]1CNC[C@H]1O [Example 80, (3R,4R)-4-(4-Chloro-2-(2-(hydroxymethyl)thieno[3,2-b]pyridin-7-yl)-6-methylphenoxy)pyrrolidin-3-ol]	1 to 10 µM
CCC(O)c1cc2nccc(-c3cc(Cl)cc(C)c3O[C@@H]3CNC[C@@H]3F)c2s1 (stereo partly drawn) [Example 82, 1-(7-(5-Chloro-2-(((3R,4S)-4-fluoropyrrolidin-3-yl)oxy)-3-methylphenyl)thieno[3,2-b]pyridin-2-yl)propan-1-ol]	1 to 10 µM
Cc1cc(Cl)cc(-c2ccnc3cc(CN4C(=O)CCC4=O)sc23)c1O[C@@H]1CNC[C@@H]1N=[N+]=[N-] [Example 83, 1-((7-(2-(((3R,4S)-4-Azidopyrrolidin-3-yl)oxy)-5-chloro-3-methylphenyl)thieno[3,2-b]pyridin-2-yl)methyl)pyrrolidine-2,5-dione]	< 1 µM
CC(=O)N[C@H]1CNC[C@H]1Oc1c(C)cc(Cl)cc1-c1ccnc2cc(CO)sc12 [Example 84, N-((3S,4R)-4-(4-Chloro-2-(2-(hydroxymethyl)thieno[3,2-b]pyridin-7-yl)-6-methylphenoxy)pyrrolidin-3-yl)acetamide]	10 to 30 µM
CC(=O)N[C@H]1CNC[C@H]1Oc1c(C)cc(Cl)cc1-c1ccnc2cc(CN3C(=O)CCC3=O)sc12 [Example 85, N-((3S,4R)-4-(4-Chloro-2-(2-((2,5-dioxopyrrolidin-1-yl)methyl)thieno[3,2-b]pyridin-7-yl)-6-methylphenoxy)pyrrolidin-3-yl)acetamide]	1 to 10 µM
CCC(O)c1cc2nccc(-c3cc(Cl)cc(C)c3O[C@@H]3CN[C@H](C(C)(C)O)C3)c2s1 (stereo partly drawn) [Example 86, 1-(7-(5-Chloro-2-(((3S,5S)-5-(2-hydroxypropan-2-yl)pyrrolidin-3-yl)oxy)-3-methylphenyl)thieno[3,2-b]pyridin-2-yl)propan-1-ol]	1 to 10 µM
CCC(O)c1cc2nccc(-c3cc(Cl)cc(C)c3OC3CCNC3=O)c2s1 (stereo not shown) [Example 87, 3-(4-Chloro-2-(2-(1-hydroxypropyl)thieno[3,2-b]pyridin-7-yl)-6-methylphenoxy)pyrrolidin-2-one]	10 to 30 µM
Cc1cc(Cl)cc(-c2ccnc3cc(CO)sc23)c1O[C@@H]1CC[C@H](N)C1 [Example 89, (7-(2-(((1R,3S)-3-Aminocyclopentyl)oxy)-5-chloro-3-methylphenyl)thieno[3,2-b]pyridin-2-yl)methanol]	10 to 30 µM
Cc1cc(Cl)cc(-c2ccnc3cc(CO)sc23)c1O[C@@H]1CC[C@@H](N)C1 [Example 90, (7-(2-(((1R,3R)-3-Aminocyclopentyl)oxy)-5-chloro-3-methylphenyl)thieno[3,2-b]pyridin-2-yl)methanol]	1 to 10 µM
CC(=O)NCc1cc2nccc(-c3cc(Cl)cc(C)c3O[C@@H]3CNC[C@@H]3F)c2s1 [Example 91, N-((7-(5-Chloro-2-(((3R,4S)-4-fluoropyrrolidin-3-yl)oxy)-3-methylphenyl)thieno[3,2-b]pyridin-2-yl)methyl)acetamide]	< 1 µM
Cc1cc(Cl)cc(-c2ccnc3cc(CO)sc23)c1O[C@@H]1CCC[C@H]1N(C)C [Example 92, (7-(5-Chloro-2-(((1R,2R)-2-(dimethylamino)cyclopentyl)oxy)-3-methylphenyl)thieno[3,2-b]pyridin-2-yl)methanol]	> 30 µM
Cc1cc(Cl)cc(-c2ccnc3cc(CO)sc23)c1O[C@@H]1CC[C@@H](N(C)C)C1 [Example 93, (7-(5-Chloro-2-(((1R,3R)-3-(dimethylamino)cyclopentyl)oxy)-3-methylphenyl)thieno[3,2-b]pyridin-2-yl)methanol]	10 to 30 µM
CCC(O)c1cc2ncnc(-c3cc(Cl)cc(C)c3O[C@@H]3CNC[C@@H]3F)c2s1 (stereo partly drawn) [Example 94, 1-(4-(5-Chloro-2-(((3R,4S)-4-fluoropyrrolidin-3-yl)oxy)-3-methylphenyl)thieno[3,2-d]pyrimidin-6-yl)propan-1-ol]	1 to 10 µM
